Assay results: US20070197512A1, “Carboxylic Acid Compounds and Use Thereof” (Japan Tobacco Inc., priority 2006, published 2007)
pIC50: −log10 of the molar value.

Tests used:
human URAT1 = biological target: T1, human URAT1 (Homo sapiens, UniProt Q96S37); assay: Uric acid transport inhibitory test using human URAT1-expressing cells; assay type: cell-based; details: human URAT1-expressing HEK293 cells, 14C-uric acid 50 μM, uptake 5 min, room temperature; read-out: hURAT1 IC50
T1 construct: Human URAT1 full length cDNA was subcloned to expression vector pcDNA3.1; expressed in transfected cells; host or cells: HEK293 cells (pcDNA3.1, geneticin-selected)
T1 sequence (Q96S37 1-553): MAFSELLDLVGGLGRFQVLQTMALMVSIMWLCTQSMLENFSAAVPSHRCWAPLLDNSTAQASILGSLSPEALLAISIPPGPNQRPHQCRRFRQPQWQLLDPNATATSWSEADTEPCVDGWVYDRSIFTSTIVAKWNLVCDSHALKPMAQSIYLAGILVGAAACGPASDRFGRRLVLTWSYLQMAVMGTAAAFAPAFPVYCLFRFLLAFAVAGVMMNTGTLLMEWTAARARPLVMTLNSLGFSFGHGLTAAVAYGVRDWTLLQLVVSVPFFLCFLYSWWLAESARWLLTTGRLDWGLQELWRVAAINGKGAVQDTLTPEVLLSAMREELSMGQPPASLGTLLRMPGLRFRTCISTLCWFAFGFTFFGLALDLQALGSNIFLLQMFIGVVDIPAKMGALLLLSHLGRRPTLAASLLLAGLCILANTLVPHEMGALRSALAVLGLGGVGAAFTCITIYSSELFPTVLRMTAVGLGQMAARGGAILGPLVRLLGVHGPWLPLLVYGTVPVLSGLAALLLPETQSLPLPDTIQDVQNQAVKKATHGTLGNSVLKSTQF
Method in brief: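 HEK293 cells stably transfected with full-length human URAT1; mock-transfected HEK293 served as background. Uptake of 14C-uric acid (50 μM final) over 5 min at room temperature in Na-gluconate-substituted HBSS with compound, read by scintillation. IC50 derived from URAT1-specific transport (URAT1 minus mock, DMSO = 100%).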

CYP2C9 = biological target: T2, CYP2C9 (Homo sapiens, UniProt P11712); assay: CYP inhibitory test using human liver microsome; assay type: in vitro ADME; details: model substrate diclofenac, 37° C., 10 min, read-out: CYP2C9 inhibition, IC50
T2 construct: Human liver microsome (20 mg protein/mL, 5 μL, Xenotech LLC, purchased from Lenexa Kans.); tissue Xenotech LLC; host or cells: human liver microsomes
T2 sequence (P11712 whole entry): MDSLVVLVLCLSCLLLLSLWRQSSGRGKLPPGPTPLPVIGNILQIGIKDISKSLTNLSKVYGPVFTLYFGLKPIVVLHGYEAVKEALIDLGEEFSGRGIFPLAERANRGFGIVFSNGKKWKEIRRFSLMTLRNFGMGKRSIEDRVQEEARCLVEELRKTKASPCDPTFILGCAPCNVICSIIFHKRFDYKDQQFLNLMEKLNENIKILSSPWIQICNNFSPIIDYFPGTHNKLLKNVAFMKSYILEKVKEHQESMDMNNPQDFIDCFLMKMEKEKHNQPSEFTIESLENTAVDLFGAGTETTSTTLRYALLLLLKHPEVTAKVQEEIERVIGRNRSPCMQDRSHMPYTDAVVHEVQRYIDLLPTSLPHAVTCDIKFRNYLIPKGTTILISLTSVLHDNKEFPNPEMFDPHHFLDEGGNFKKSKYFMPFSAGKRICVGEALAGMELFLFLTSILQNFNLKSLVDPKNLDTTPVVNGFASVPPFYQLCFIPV
Procedure: Experimental Example 2 CYP Inhibitory Test Using Human Liver Microsome
Human liver microsome (20 mg protein/mL, 5 μL, Xenotech LLC, purchased from Lenexa Kans.) was suspended in 100 mM potassium phosphate buffer (70 μL, pH 7.4), mixed with a solution (0.5 μL) of the Example compound dissolved in DMSO and preincubated at 37° C. for 5 min. NADPH producing system coenzyme solution (β-nicotinamide adenine dinucleotide phosphate: 5.2 mM, D-glucose-6-phosphate: 13.2 mM, magnesium chloride: 13.2 mM, glucose-6-phosphate dehydrogenase: 1.8 U/mL) 25 μL, and a model substrate (CYP3A4: midazolam 1 mM, CYP2D6: bufuralol 1 mM, CYP2C9: diclofenac 2 mM) 0.5 μL dissolved in DMSO were added to start the reaction. After incubation at 37° C. for 10 min., acetonitrile (200 μL) containing an internal standard substance (propranolol 1 μM) was added and the mixture was centrifuged (room temperature, 3000 rpm, 20 min). The amount of the metabolite produced from each model substrate in the supernatant was measured by high performance liquid chromatography/mass spectrometry (LC/MS/MS) and each CYP enzyme activity was determined. The concentration showing 50% inhibition (IC50) was calculated relative to the enzyme activity without addition of Example compound (DMSO 0.5 μL added) as 100%.
As a comparative example, the CYP enzyme activity of the compound described in JP-A-3-135917 was examined by determining the IC50 value in the same manner as above.

CC(C)[C@@H]1Oc2c(Cl)cc(Cl)cc2N(CCC(=O)O)C1=O [Example 111, 3-((S)-6,8-dichloro-2-isopropyl-3-oxo-2,3-dihydrobenzo[1,4]oxazin-4-yl)propionic acid]
pIC50 (human URAT1): 5.52 to 6.52
pIC50 (CYP2C9): < 4.30

Cc1cc(Cl)cc2c1OC(c1ccccc1)CN2C(=O)/C=C/C(=O)O (stereo not drawn) [Example 84, (E)-4-(6-chloro-8-methyl-2-phenyl-2,3-dihydrobenzo[1,4]oxazin-4-yl)-4-oxo-2-butenoic acid]
pIC50 (human URAT1): 5.52 to 6.52
pIC50 (CYP2C9): < 4.30

CC(C)[C@H]1Oc2c(Cl)cc(Cl)cc2N(CCC(=O)O)C1=O [Example 108, 3-((R)-6,8-dichloro-2-isopropyl-3-oxo-2,3-dihydrobenzo[1,4]oxazin-4-yl)propionic acid]
pIC50 (human URAT1): > 6.52
pIC50 (CYP2C9): < 4.30

Cc1ccc2c(c1)N(C(=O)/C=C/C(=O)O)CC(c1ccccc1)O2 (stereo not drawn) [Example 65, (E)-4-(6-methyl-2-phenyl-2,3-dihydrobenzo[1,4]oxazin-4-yl)-4-oxo-2-butenoic acid]
pIC50 (human URAT1): ≤ 5.52
pIC50 (CYP2C9): < 4.30

Cc1ccc2c(c1)OC(C(C)C)CN2C(=O)/C=C/C(=O)O (stereo not drawn) [Example 56, (E)-4-(2-isopropyl-7-methyl-2,3-dihydrobenzo[1,4]oxazin-4-yl)-4-oxo-2-butenoic acid]
pIC50 (human URAT1): ≤ 5.52
pIC50 (CYP2C9): < 4.30

Cc1cc(Cl)cc2c1O[C@H](C(C)C)C(=O)N2CCC(=O)O [Example 107, 3-((R)-6-chloro-2-isopropyl-8-methyl-3-oxo-2,3-dihydrobenzo[1,4]oxazin-4-yl)propionic acid]
pIC50 (human URAT1): > 6.52
pIC50 (CYP2C9): < 4.30

CC(C)C1CN(C(=O)/C=C/C(=O)O)c2cc(Cl)ccc2O1 (stereo not drawn) [Example 69, (E)-4-(6-chloro-2-isopropyl-2,3-dihydrobenzo[1,4]oxazin-4-yl)-4-oxo-2-butenoic acid]
pIC50 (human URAT1): ≤ 5.52
pIC50 (CYP2C9): < 4.30

Cc1cc(C)c2c(c1)N(CCC(=O)O)C(=O)[C@@H](C(C)C)O2 [Example 74, 3-((R)-2-isopropyl-6,8-dimethyl-3-oxo-2,3-dihydrobenzo[1,4]oxazin-4-yl)propionic acid]
pIC50 (human URAT1): > 6.52
pIC50 (CYP2C9): < 4.30

Cc1cc(C)c2c(c1)N(CCC(=O)O)C(=O)[C@H](C(C)C)O2 [Example 73, 3-((S)-2-isopropyl-6,8-dimethyl-3-oxo-2,3-dihydrobenzo[1,4]oxazin-4-yl)propionic acid]
pIC50 (human URAT1): > 6.52
pIC50 (CYP2C9): < 4.30

Cc1cc(Cl)cc2c1OC(C(C)C)CN2C(=O)/C=C/C(=O)O (stereo not drawn) [Example 83, (E)-4-(6-chloro-2-isopropyl-8-methyl-2,3-dihydrobenzo[1,4]oxazin-4-yl)-4-oxo-2-butenoic acid]
pIC50 (human URAT1): 5.52 to 6.52
pIC50 (CYP2C9): < 4.30

Cc1cc(Cl)c2c(c1)N(CCC(=O)O)C(=O)[C@H](C(C)C)O2 [Example 109, 3-((S)-8-chloro-2-isopropyl-6-methyl-3-oxo-2,3-dihydrobenzo[1,4]oxazin-4-yl)propionic acid]
pIC50 (human URAT1): 5.52 to 6.52
pIC50 (CYP2C9): < 4.30

Cc1cc(C)c2c(c1)N(CCC(=O)O)C(=O)[C@@H](CC(C)C)O2 [Example 91, 3-((R)-2-isobutyl-6,8-dimethyl-3-oxo-2,3-dihydrobenzo[1,4]oxazin-4-yl)propionic acid]
pIC50 (human URAT1): > 6.52
pIC50 (CYP2C9): < 4.30

CC(C)c1cccc2c1OC(C(C)C)CN2C(=O)/C=C/C(=O)O (stereo not drawn) [Example 36, (E)-4-(2,8-diisopropyl-2,3-dihydrobenzo[1,4]oxazin-4-yl)-4-oxo-2-butenoic acid]
pIC50 (human URAT1): 5.52 to 6.52
pIC50 (CYP2C9): < 4.30

CCCC1Oc2c(C)cc(C)cc2N(CCC(=O)O)C1=O (stereo not drawn) [Example 102, 3-(6,8-dimethyl-3-oxo-2-propyl-2,3-dihydrobenzo[1,4]oxazin-4-yl)propionic acid]
pIC50 (human URAT1): > 6.52
pIC50 (CYP2C9): < 4.30

CC(C)c1cccc2c1OC(C(C)C)C(=O)N2CCC(=O)O (stereo not drawn) [Example 14, 3-(2,8-diisopropyl-3-oxo-2,3-dihydrobenzo[1,4]oxazin-4-yl)propionic acid]
pIC50 (human URAT1): 5.52 to 6.52
pIC50 (CYP2C9): < 4.30
